Measured values reported in the supplement of paper PMC11061612.

How the values were obtained:
Assay in all cases: combination Emax (second highest fraction inhibited in the dose matrix, 72 h); higher = more inhibition; extreme values may be limits of the assay
[1] = system: MIA-PaCa-2 (Pancreatic Carcinoma)
In short: (§1)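 After 24 hours at 37°C and 5% CO2 in 1536-well plates, cells in DMEM/F12 or RPMI plus 10% FBS received two-drug dose matrices for 72 hours. Viability came from CellTiter-Glo 2.0 luminescence and was scaled as inhibition, anchored at 0 by vehicle wells and at 1 by blank wells. Combination Emax is taken as the second-highest inhibition in the matrix, and Bliss excess as the observed combination effect less EA + EB − EA·EB, with EA and EB the single-agent effects.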

[2] = system: YH-13 (Glioblastoma)
In short: as §1

[3] = system: AMO-1 (Plasma Cell Myeloma)
In short: as §1

[4] = system: TGW (Neuroblastoma)
In short: as §1

[5] = system: Ca9-22 (Head and Neck Carcinoma)
In short: as §1

[6] = system: D-263MG (Glioblastoma)
In short: as §1

[7] = system: MLMA (Other Blood Carcinomas)
In short: as §1

[8] = system: LU-65 (Non-Small Cell Lung Carcinoma)
In short: as §1

[9] = system: Caov-4 (Ovarian Carcinoma)
In short: as §1

[10] = system: TK10 (Kidney Carcinoma)
In short: as §1

[11] = system: SW13 (Other Solid Carcinomas)
In short: as §1

[12] = system: EFM-19 (Breast Carcinoma)
In short: as §1

[13] = system: PANC-04-03 (Pancreatic Carcinoma)
In short: as §1

SMILES	combination Emax [1]	combination Emax [2]	combination Emax [3]	combination Emax [4]	combination Emax [5]	combination Emax [6]	combination Emax [7]	combination Emax [8]	combination Emax [9]	combination Emax [10]	combination Emax [11]	combination Emax [12]	combination Emax [13]
C=CCn1c(=O)c2cnc(Nc3ccc(N4CCN(C)CC4)cc3)nc2n1-c1cccc(C(C)(C)O)n1 [AZD1775] + CCc1c2c(nc3ccc(O)cc13)-c1cc3c(c(=O)n1C2)COC(=O)[C@]3(O)CC [SN-38] (first compound max 1 µM, partner max 0.3 µM)	0.969	0.741	0.974	0.728	0.965	0.641	0.786	0.944	0.905	0.612	0.964	0.743	0.617
C=CCn1c(=O)c2cnc(Nc3ccc(N4CCN(C)CC4)cc3)nc2n1-c1cccc(C(C)(C)O)n1 [AZD1775] + Nc1ccn([C@@H]2O[C@H](CO)[C@@H](O)C2(F)F)c(=O)n1 [Gemcitabine] (first compound max 1 µM, partner max 0.3 µM)	0.947	0.662	0.959	0.809	0.834	0.622	0.815	0.848	0.837	0.456	0.928	0.614	0.526
CN(CCO)CC[C@H](CSc1ccccc1)Nc1ccc(S(=O)(=O)NC(=O)c2ccc(N3CCC([C@@H](O)c4ccccc4-c4ccc(Cl)cc4)CC3)cc2)cc1S(=O)(=O)C(F)(F)F [AZD4320] + CS(=O)(=O)CCNCc1ccc(-c2ccc3ncnc(Nc4ccc(OCc5cccc(F)c5)c(Cl)c4)c3c2)o1 [Lapatinib] (first compound max 1 µM, 7x7, partner max 10 µM)	0.832	0.603	0.926	1	0.974	0.154	0.497	0.368	0.955	0.92	0.804	0.846	0.313
Cc1c2c(nn1C)CSCc1cc(n(C)n1)CSc1cc(c3ccccc3c1)OCCCc1c(C(=O)O)n(C)c3c-2c(Cl)ccc13 [AZD5991] + CC(=O)O[C@H]1C(=O)[C@@]2(C)[C@H]([C@H](OC(=O)c3ccccc3)[C@]3(O)C[C@H](OC(=O)[C@H](O)[C@@H](NC(=O)c4ccccc4)c4ccccc4)C(C)=C1C3(C)C)[C@]1(OC(C)=O)CO[C@@H]1C[C@@H]2O [Paclitaxel] (first compound max 1 µM, 7x7, partner max 3 µM)	0.807	0.994	1	0.955	0.963	1	0.872	0.752	0.833	0.519	1	0.931	0.52
Cc1c2c(nn1C)CSCc1cc(n(C)n1)CSc1cc(c3ccccc3c1)OCCCc1c(C(=O)O)n(C)c3c-2c(Cl)ccc13 [AZD5991] + CS(=O)(=O)CCNCc1ccc(-c2ccc3ncnc(Nc4ccc(OCc5cccc(F)c5)c(Cl)c4)c3c2)o1 [Lapatinib] (first compound max 1 µM, 7x7, partner max 10 µM)	0.496	0.186	1	0.312	0.933	0.458	0.232	0.332	0.891	0.56	0.973	0.364	0.343
Cc1c2c(nn1C)CSCc1cc(n(C)n1)CSc1cc(c3ccccc3c1)OCCCc1c(C(=O)O)n(C)c3c-2c(Cl)ccc13 [AZD5991] + Nc1ccn([C@@H]2O[C@H](CO)[C@@H](O)C2(F)F)c(=O)n1 [Gemcitabine] (first compound max 1 µM, 7x7, partner max 0.3 µM)	0.85	0.574	1	0.621	0.68	0.894	0.821	0.627	0.83	0.346	0.981	0.573	0.548
C[C@@H]1COCCN1c1cc(C2([S@](C)(=N)=O)CC2)nc(-c2ccnc3[nH]ccc23)n1 [AZD6738] + C1CC(C1)(C(=O)[O-])C(=O)[O-].N.N.[Pt+2] [Carboplatin] (first compound max 10 µM, 7x7, partner max 10 µM)	0.547	0.576	0.88	0.574	0.895	0.386	0.553	0.703	0.813	0.634	0.344	0.211	0.455
C[C@@H]1COCCN1c1cc(C2([S@](C)(=N)=O)CC2)nc(-c2ccnc3[nH]ccc23)n1 [AZD6738] + Nc1ccn([C@@H]2O[C@H](CO)[C@@H](O)C2(F)F)c(=O)n1 [Gemcitabine] (first compound max 10 µM, 7x7, partner max 0.3 µM)	0.947	0.865	0.967	0.897	0.923	0.738	0.794	0.848	0.894		0.932	0.795	0.627
C[C@@H](Nc1cc(F)cc(F)c1)c1cc(C(=O)N(C)C)cc2c(=O)cc(N3CCOCC3)oc12 [AZD8186] + C1CN(CCC1(C(=O)N[C@@H](CCO)C2=CC=C(C=C2)Cl)N)C3=NC=NC4=C3C=CN4 [AZD5363] (first compound max 10 µM, 7x7, partner max 10 µM)	0.258	0.644	0.506	0.258	0.296	0.284	0.623	0.615	0.309	0.454	0.251	0.432	0.275
C[C@@H](Nc1cc(F)cc(F)c1)c1cc(C(=O)N(C)C)cc2c(=O)cc(N3CCOCC3)oc12 [AZD8186] + CC(=O)c1c(C)c2cnc(Nc3ccc(N4CCNCC4)cn3)nc2n(C2CCCC2)c1=O [Palbociclib] (first compound max 10 µM, 7x7, partner max 10 µM)	0.471	0.692	0.673	0.32	0.368	0.355	0.847	0.312	0.29	0.556	0.316	0.449	0.344
C[C@@H](Oc1cc(-c2cnn(C3CCNCC3)c2)cnc1N)c1c(Cl)ccc(F)c1Cl [Crizotinib] + CC1=C(C(=CC=C1)Cl)NC(=O)C2=CN=C(S2)NC3=CC(=NC(=N3)C)N4CCN(CC4)CCO [Dasatinib] (first compound max 10 µM, 7x7, partner max 2 µM)	0.608	0.978	0.954	0.677	0.952	0.843	0.529	0.852	0.414	0.826	0.736	0.636	0.529
C[C@@H](Oc1cc(-c2cnn(C3CCNCC3)c2)cnc1N)c1c(Cl)ccc(F)c1Cl [Crizotinib] + Cn1cnc2c(F)c(Nc3ccc(Br)cc3Cl)c(C(=O)NOCCO)cc21 [Selumetinib] (first compound max 10 µM, 7x7, partner max 10 µM)	0.763	0.446	0.999	0.69	0.542	0.308	0.491	0.974	0.552	0.367	0.522	0.224	0.631
CS(=O)(=O)CCNCc1ccc(-c2ccc3ncnc(Nc4ccc(OCc5cccc(F)c5)c(Cl)c4)c3c2)o1 [Lapatinib] + Cn1cnc2c(F)c(Nc3ccc(Br)cc3Cl)c(C(=O)NOCCO)cc21 [Selumetinib] (first compound max 10 µM, 7x7, partner max 10 µM)	0.57	0.209	0.894	0.207	0.845	0.259	0.316	0.701	0.694	0.605	0.687	0.289	0.77
O=C(c1cc(Cc2n[nH]c(=O)c3ccccc23)ccc1F)N1CCN(C(=O)C2CC2)CC1 [Olaparib] + CC1(C)CCC(CN2CCN(c3ccc(C(=O)NS(=O)(=O)c4ccc(NCC5CCOCC5)c([N+](=O)[O-])c4)c(Oc4cnc5[nH]ccc5c4)c3)CC2)=C(c2ccc(Cl)cc2)C1 [Venetoclax] (first compound max 10 µM, 7x7, partner max 1 µM)	0.209	0.195	0.333	0.429	0.229	0.0634	0.265	0.164	0.137	0.0731	0.213	0.194	0.176
